Here are results for one substance from paper PMC4864350, “Fluorogenic Substrates for In Situ Monitoring of Caspase-3 Activity in Live Cells” (PLoS ONE, 2016).

For test [1], the system named is HEK293T cells. The test can be described thus: Live-cell confocal imaging of caspase-3 activation. The format is cell-based. The settings on record: 27 at 10 μM. On the procedure:
(§1) Fig 5 Confocal microscopy images of HEK293T and MCF-7 cells treated with substrate 27. Confocal microscopy images (objective HCX PL APO ×63/1.40–0.6 Oil CS) of HEK273T cells with substrate 27 (10 μM) without staurosporine (STS) (A) and with staurosporine (1 μM) (B) induced apoptosis (green fluorescence is from fluorescein “turned on” by caspase-3 cleavage of the substrate, blue is DAPI nuclear stain). (C) Staurosporine treated MCF-7 cells with substrate 27.
(§2) Cell culture was performed in a Heracell 150 incubator (Heraeus) and in a Herasafe KS 18 class II negative-flow cabinet (Heraeus). […] Fluorescence was evaluated as mean fluorescence intensity (MFI) and estimated <100 u.a. for untreated control cells (consistent values independently of staurosporine addition). Apoptotic cells treated with substrate 1 were used as a positive control to obtain the maximum of fluorescence signal. […] The data were analysed using the software Flowjo® 7.5.
(§3) For confocal microscopy, the cells were fixed with 4% paraformaldehyde in PBS and the nuclei stained with Hoechst-33342 (1% w/v in PBS). Cellular fluorescence of cells was analysed using an Inverted Leica DM IRB with filter I3 (450–490 nm) and a Leica SP5 Confocal (FITC and DAPI channel).

The target in test [2] is T1, caspase-7 (Homo sapiens, UniProt P55210).
T1 construct: purchased R&D systems, USA
T1 sequence (P55210 24-198 limits assumed): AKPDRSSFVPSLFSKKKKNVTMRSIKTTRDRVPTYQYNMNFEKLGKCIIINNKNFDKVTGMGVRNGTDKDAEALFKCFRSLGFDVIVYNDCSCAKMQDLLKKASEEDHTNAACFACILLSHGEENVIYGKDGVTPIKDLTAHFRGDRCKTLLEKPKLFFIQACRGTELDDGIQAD
T1 sequence (P55210 207-303 limits assumed): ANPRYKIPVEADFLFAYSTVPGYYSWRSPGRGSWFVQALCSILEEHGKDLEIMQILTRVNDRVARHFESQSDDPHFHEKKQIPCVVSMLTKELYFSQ
Description: Caspase-7-mediated cleavage at high enzyme concentration analysed by MALDI-TOF MS. The class given is biochemical. The settings on record: 10–20 μM substrate, 0.4 μM enzyme, 2 h, 37 °C. On the procedure:
To confirm how specific 11, 12 and 14 were for caspase-3, these substrates were incubated with high enzyme concentrations (10–20 μM substrate, 0.4 μM enzyme) and the caspase-mediated cleavage analysed by MALDI-TOF MS.
S2 Fig. (A) MALDI-TOF MS spectra of substrate 11 (sequence Asp-Ala-Pro-Asp). (B) After incubation (20 µM) with Caspase-3 for 2 h. (C) After incubation (20 µM) with Caspase-7 for 2 h (detected as the PBS adduct.)
Caspase-3 or caspase-7 (R&D systems, USA) was added to 100 µL of caspase assay buffer (final enzyme concentration 0.4 µM) with the substrates at 10–20 µM. The samples were incubated in Eppendorf Thermomixer® Comfort shaking at 1200 rpm for 2h at 37 °C. MALDI -TOF mass spectra were recorded as described in Table S1 .
(1 picture or pasted object on this page, not shown here)

Test [3] relates to MCF-7 cells. The test can be described thus: Confocal imaging of staurosporine-treated cells lacking functional caspase-3. The format is cell-based. The settings on record: cells lack functional caspase-3 but express caspase-7. On the procedure: as §1, §2, §3
Test [4] concerns the target T2, caspase-3 (Homo sapiens, UniProt P42574).
T2 construct: purchased R&D systems, USA
T2 sequence (P42574 29-175 limits assumed): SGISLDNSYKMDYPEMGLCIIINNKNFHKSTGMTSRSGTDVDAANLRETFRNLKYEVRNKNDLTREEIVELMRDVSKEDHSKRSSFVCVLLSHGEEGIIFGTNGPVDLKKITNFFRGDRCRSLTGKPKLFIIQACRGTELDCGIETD
T2 sequence (P42574 176-277 limits assumed): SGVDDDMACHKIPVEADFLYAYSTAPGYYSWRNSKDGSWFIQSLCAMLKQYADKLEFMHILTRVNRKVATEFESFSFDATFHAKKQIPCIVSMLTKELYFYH
Description: Kinetic assay of fluorogenic substrates with caspase-3. The class given is biochemical. The settings on record: substrate range 0.1–8 μM, enzyme 20 nM (1–9) or 15 nM (10–14), n = 3. On the procedure:
The ability of […] (bearing MR as the quencher of choice) to act as s substrate for caspase-3, as well as caspase-7, was investigated by determining the catalytic efficiency (kcat/KM) for each substrate with both enzymes (Table 2).
Caspase-3 or caspase-7 (R&D systems, USA) was added to 100 μL of caspase assay buffer with substrates 1–14 at concentrations from 0.1 μM to 8 μM in a 96-well plate (n = 3) to give final enzyme concentration of 20 nM (1–9) or 15 nM (10–14). Fluorescence (λEx/Em 485/528 nm) was recorded on a Biotek Synergy HT Multi-Mode Microplate Reader every 2 min. Control samples had the same composition but no enzyme. The rate (μM/min) was calibrated using a 5(6)-carboxyfluorescein conversion factor (0.0055 μM/RFU) and data plotted against time (min). For initial cleavage rate (0–5 min), plots were fitted using linear regression analysis and the Michaelis-Menten data generated using GraphPad Prism 5.

*: point of attachment. MethylRed = CN(C)c1ccc(/N=N/c2ccccc2C(=O)*)cc1; FAM = 5(6)-carboxyfluorescein; peptoid = not defined here; Ahx = NCCCCCC(=O)O

With “substrate 27: FAM-Ahx-Asp-Leu-Pro-Asp-Lys(MR)-Ahx, conjugated to the cell penetrating peptoid at the C-terminus ({FAM-Ahx}-DLPDK(MethylRed)-{Ahx-peptoid}; reading uncertain; also: printed as FAM-Ahx-Asp-Leu-Pro-Asp-Lys(MR)-Ahx)”, the “fluorescence turn-on in apoptotic cells (confocal)” value in test [1] (staurosporine 1 μM) is listed as “only detected in the cytoplasm of apoptotic HEK293T cells”. The “fluorescence in non-apoptotic cells (confocal)” value in test [1] (without staurosporine) was “no increase in fluorescence observed”. In addition, in test [2], the “cleavage by caspase-7 (MALDI-TOF MS)” value is on record as “did not show any cleavage”. Besides, the “fluorescence turn-on in apoptotic MCF-7 cells (confocal)” value in test [3] is “No fluorescence “turn-on” was observed”. Moreover, the Km (usually the concentration of substrate that gives half-maximal velocity) in test [4] (fluorescence λEx/Em 485/528 nm, initial rate 0–5 min, Michaelis-Menten) is 1.1 ± 0.3 µM. Further, in test [4], the “Kcat, Caspase-3” value is 0.035 ± 0.013 s⁻¹.
